| SMILES | melting point |
| --- | --- |
| COC(=O)c1ccc(OC)cc1-c1ccc(C(F)(F)F)cc1 | 93 to 94 °C |
| CCOC(=O)N1CCC(c2ccc3nc(-c4ccc(S(C)(=O)=O)cc4F)oc3c2)CC1 | 154 to 158 °C |
| Cn1c(C#N)c(-c2ccc(F)cc2)c2ncccc2c1=O | 258 to 259 °C |
| CN(C)CCOc1ccc(Nc2nccc(-c3cccnc3)n2)cc1 | 108 to 110 °C |
| CCOCCn1cc2c(C3C(=O)Nc4ccc(Br)cc43)nc(NCCN(C)C)nc2n1 (stereo not drawn) | 247 to 251 °C |
| CCC(CC)c1ccc(Cl)c2nc3n(c12)CCCCN3c1cc(C)cc2c1ncn2C | 259 to 260 °C |
| COc1ccc2cc(Br)ccc2c1[N+](=O)[O-] | 151 to 152 °C |
| Cc1ccc(-c2c(Cl)ncnc2NS(=O)(=O)c2ccc(C(C)(C)COC3CCCCO3)cc2)cc1 (stereo not drawn) | 141 to 144 °C |
| O=C(OCCN1CCNC1=Nc1ccccc1N1CCOCC1)c1ccccc1 | 92 to 94 °C |
| Cc1cc(C)cc(C(=O)N2CCC(Oc3nc4ccccc4n3Cc3ccc(F)cc3)CC2Cc2ccccc2)c1 (stereo not drawn) | 154 °C |
| CCCCCCCCc1ccc(C(=O)Cc2cccc(C(=O)O)c2)cc1 | 103 to 110 °C |
| CC(=NC#N)NC1=CC(C)(C)Oc2ccc(C#N)cc21 | 205 to 206 °C |
| CCOC(=O)CNC(=O)c1ccc(N)cc1 | 93 to 94 °C |
| Cc1cc(Oc2ccccc2)c(NC(=O)OCc2ccccc2)c(=O)n1CC(=O)O | 108 to 110 °C |
| Nc1nc(Cl)c(NC=O)c(N[C@H]2C=C[C@@H](CO)C2)n1 | 174 to 176 °C |
| CC(C)(C)OC(=O)NCC1CCc2cc(C=O)ccc2C1 (stereo not drawn) | 115 °C |
| CNc1n[nH]c(=S)n1C | 213 °C |
| CCOC(=O)c1ccc(COc2cccc(O)c2C=O)cc1 | 105 to 107 °C |
| CCOc1nn(Cc2ccc(OCc3nc(-c4ccccc4)oc3C)cc2)cc1CCC(=O)O | 96 to 97 °C |
| CCc1c(F)c(F)c(-n2ncc(C#N)c2NCC(C)C(=O)O)c(F)c1F (stereo not drawn) | 138 to 140 °C |
| CC(=O)N1CCc2ccc(Cl)c(Cl)c2C1 | 99.5 to 100 °C |

| SMILES | melting point |
| --- | --- |
| O=C(O)c1cc(F)c(-n2cccc2)cc1F | 196 to 198 °C |
| CCc1noc(-c2ccc(OCCC3CN(c4ccc(Cl)nn4)CCO3)cc2)n1 (stereo not drawn) | 164 °C |
| Cc1ccc(Sc2ccc(C(=O)O)cc2)cc1 | 105 to 107 °C |
| Nc1ncc(-c2cccc(-n3cnc4cc(-c5ccco5)ccc43)c2)cn1 | 220 to 222 °C |
| Cc1nc[nH]c1CSCCNC1=Nc2ccccc2C(=O)C1 | 121 to 124 °C |
| NC(=O)c1ccc(-c2cccc3cc(COc4cccc(C(F)(F)F)c4)sc23)cc1 | 191 to 192 °C |
| COc1ccc(N(C(=O)CN2C(=O)C(Cc3nn(Cc4ccccc4)c4ccccc34)(OC)C(=O)N(c3cccnc3)c3ccccc32)C(C)C)cc1 (stereo not drawn) | 223 to 224 °C |
| O=C(O)CCc1cn(Cc2ccccc2)c2ccccc12 | 110 to 112 °C |
| CC(C)(CN)c1ccc(-n2c(-c3cc(-c4cnc5ccccc5c4)ccn3)c[nH]c2=O)cc1 | 244 to 247 °C |
| Cc1c(NC(=O)c2ccc(-c3ccc4c(c3)OCCO4)cc2)ccc2cc(CN3CCCC3)cnc12 | 187 to 188 °C |
| CC(C)N1Cc2cc(N)ccc2N(CCCl)S1(=O)=O | 154 to 156 °C |
| CC(C)(Nc1ccc(OCc2ccccc2)cc1)C(=O)O | 210 °C |
| CC1=Cc2ccc(Cl)cc2C(c2ccc(N)c(C)c2)=NN1C(=O)NC1CC1 | 233 to 236 °C |
| CC(C)(C)OC(=O)NCCNC(=O)c1n[nH]cc1-c1ccccc1 | 71 °C |
| CCC(C)(C)c1ccc(S(=O)(=O)Nc2ncnc(OCCOc3ccc(Br)cn3)c2-c2ccc(C)cc2)cc1 | 154 °C |
| O=C(NO)c1ccc(-c2ccc3nnn(Cc4ccc5ncccc5c4)c3n2)cc1F | 180 to 182 °C |
| COC(=O)c1c(O)ccc(CNC(=O)CCCCCNC(=O)OC(C)(C)C)c1O | 73 to 76 °C |
| CC1=CC(OC(=O)c2ccc(N)cc2)C(O)C(C)(C)CC1=O (stereo not drawn) | 152 to 153 °C |
| CC(=O)NCC=C1CCc2c(Cl)cc3nn(C)cc3c21 | 177 to 178 °C |
| CCCCC1N=CC(CSc2ccccc2C(=O)O)(Cc2ccc(C(=O)O)c3ccccc23)N1 (stereo not drawn) | 272 to 274 °C |
| N#Cc1cccc2c1NC(=O)C2c1ncnc2nn(C3CCCC3)cc12 (stereo not drawn) | > 380 °C |

The next lines start with the values.

| melting point | SMILES |
| --- | --- |
| 166 to 167 °C | CS(=O)(=O)c1ccc(C2=C(c3ccc(F)cc3)C(=O)OC2)cc1 |
| 173 to 174 °C | Cc1ccc(-c2c(NS(=O)(=O)c3ccc(C(C)(C)C)cc3)ncnc2OCCOc2ccc(NC(=O)c3ccccc3)cn2)cc1 |
| 160 to 161 °C | COc1cc(N)ccc1NC(=O)c1ccc(N)cc1 |
| 73 to 74 °C | CCCCCCCCCCCCCCCCSCC(CN)Oc1ccon1 (stereo not drawn) |
| 60 to 61 °C | CCCCCCCCCCCCCCCCCCCCCCOC(=O)P(=O)(OC)OC |
| 174 to 177 °C | CON1C=C2N=NC3=C(N2C1)N(C1CCCCC1)CC(C)=C3 |
| 240 °C | COc1ccc(C(=O)Nc2ccc3ccc(C=CN(C)C)nc3n2)cc1 |
| 61 to 62 °C | COC(=O)c1ccc(C(=O)CCCOC(C)=O)cc1 |
| 195 °C | COc1ncc(Cl)cc1C1(O)CCN(CC23CC(c4ccccc42)c2ccccc23)CC1 |
| 182 °C | COc1ccc(Cl)c(Oc2c(Cl)nc(C)nc2NS(=O)(=O)c2ccc(C(C)(C)C)cc2)c1 |
| 237 to 244 °C | CCCc1ccc2nc(C#N)c(S(N)(=O)=O)n2n1 |
| 125 to 126 °C | CC(=O)Nc1ccc(-c2ccc(C(O)CCC(=O)O)cc2)cc1Br (stereo not drawn) |
| 107 to 108 °C | Cc1oc(-c2ccco2)nc1COc1cc(CCl)ccn1 |
| 115 to 116 °C | CNC(=O)C(=NOC)c1ccccc1COc1ncc(Br)cc1C |
| 144 to 145 °C | CC(=O)NS(=O)(=O)c1ccc(-c2c(-c3cccc(F)c3)noc2C)cc1 |
| 146 to 148 °C | CN1C(=O)C(C(=O)Nc2ccc(C(F)(F)F)cc2)S(=O)(=O)c2cc(F)ccc21 (stereo not drawn) |
| 135 to 138 °C | N#Cc1ccc(C(O)c2occc(=O)c2OCc2ccccc2)cc1 (stereo not drawn) |
| 259 to 261 °C | CSCC#Cc1cc(F)c2ncc(C(=O)NCc3ccc(Cl)cc3)c(O)c2c1 |
| 88 to 89 °C | CCOC(=O)C=C(C)C=CC=C(C)C=Cc1c(C)sc(C)c1C |

| melting point | SMILES |
| --- | --- |
| 132 to 133 °C | Cc1c(NC(=O)c2ccc(OC[C@@H]3CCCO3)cc2F)ccc2cc(CNCC(C)(C)O)n(C)c12 |
| 121 to 123 °C | O=C(O)CCC/C=C\[C@@H]1C[C@@H](NS(=O)(=O)c2ccccc2)CN1S(=O)(=O)c1ccc(Cl)cc1 |
| 77 to 79 °C | COc1ccc(C=Cc2ccc(C)c(Cl)c2)c(Cl)c1 |
| 220 °C | O=c1[nH]c2ccccc2n1CCN1CCC(Cc2c[nH]c3ccc(F)cc23)CC1 |
| 112 to 115 °C | CCOC(=O)N(c1ccc(Cl)cc1)c1ccccc1N |
| 230 °C | O=C1CCN2C(=O)c3cccc(-n4c(=O)[nH]c5cnccc5c4=O)c3C2C1 (stereo not drawn) |
| 200 to 201 °C | CN1CC=C(CC(=O)N2c3ccccc3NC(=O)c3ccccc32)CC1 |
| 164 °C | Nc1ccc2ccc(OCCN3CCOCC3)nc2n1 |
| 145 to 147 °C | O=C(O)c1cccc2c(=O)cc(-c3ccc(OCc4ccccc4)cc3)oc12 |
| 152 to 155 °C | CCOC(=O)CCCc1ccc(CCl)cc1 |
| 239 to 241 °C | O=C(Nc1ccc2c(c1)C(=O)NC2=O)C(=O)N1CCC(Cc2ccccc2)CC1 |
| 175 to 178 °C | COc1ccc(CCNC(=O)C(F)(F)F)c2c1NC(=O)C2 |
| 105 to 107 °C | COC(=O)c1ccc(OCCNC(=O)c2ccc(F)cc2)cc1 |
| 276 °C | Cc1cc(-c2ccc(C(F)(F)F)cc2)nc2c(-c3nc(-c4ccc(S(N)(=O)=O)s4)no3)cnn12 |
| 211 to 212 °C | O=c1c(-c2ccccc2)cc(C2=NCCO2)c2n1CCc1ccsc1-2 |
| 120 to 123 °C | N#Cc1cccc(-c2ccccc2O)c1 |
| 196 to 198 °C | COC(=O)C(=CNc1ncnc2ccc(NC(=O)CC(C)(C)C)cc12)C(=O)OC |
| 338 to 343 °C | O=C1N=C(N2CCOCC2)SC1=Cc1ccc(F)c(-c2ccc(O)c(C34CC5CC(CC(C5)C3)C4)c2)c1 |
| 145 °C | O=Cc1cc(O)c2c(c1O)CCCC2 |

| melting point | SMILES |
| --- | --- |
| 169 to 171 °C | COC(=O)N1CCc2ccc3cc[nH]c3c2CC1 |
| 210 to 212 °C | N=c1n(CCO)c2ccccc2n1-c1ccccc1 |
| 123 to 125 °C | COc1ccc(-c2cccc3ccccc23)cc1OC1CCCC1 |
| 162 to 170 °C | CS(=O)(=O)NCCn1c(=O)[nH]c2ccccc21 |
| 128 to 131 °C | Cc1ccc(-c2ccc(CO)cc2)cc1 |
| 180 °C | CCCC(=O)Nc1cc(Sc2ccccc2)ccc1NC(=NC(=O)OC)NC(=O)OC |
| 100 to 104 °C | CCCCCCCCCCNc1ccc(C(=O)Nc2cc(C(=O)NCCSC)ccc2OC)cc1 |
| 228 to 229 °C | Cc1ccc2c(Sc3ccc(Cl)cc3)c(C(=O)O)[nH]c2c1 |
| 272 to 275 °C | CC1(C)OC(=O)Nc2ccc(-c3ccc(C#N)c(F)c3)cc21 |
| 101 to 108 °C | CC(C)N(C[C@H](O)[C@H](Cc1ccccc1)NC(=O)[C@H](CC(N)=O)NC(=O)c1ccccn1)NC(=O)OC(C)(C)C |
| 192 °C | CN(C)C(=O)Nc1ccc(Oc2ccnc(Cl)n2)cc1 |
| 93 to 95 °C | O=C(COc1ccc(-c2ccccc2)cc1Br)c1ccccc1 |
| 128 to 129 °C | COc1ccccc1N1CCN(CCn2c(=O)c3cscc3n(C(C)=O)c2=O)CC1 |
| 105 to 107 °C | CCC(O)(CC)c1cc(C)c(-c2cccc(OCc3ccc(CO)c(CO)c3)c2C)c(C)c1 |
| 63.4 °C | CCOC(=O)C=Cc1cc(OC)c(OC)c(OC)c1 |
| > 250 °C | CCOC(=O)c1nc2c(=O)[nH]c3cc(S(C)(=O)=O)ccc3n2c1C |
| 170 °C | CC(C)(C)OC(=O)[C@H]1C[C@H](C(=O)Nc2ccccc2)[C@@H](c2ccccc2F)N1C(=O)CNC(=O)Nc1cccc(C(=O)O)c1 (racemic) |
| 188 °C | CNC(=S)N(CCN1CCC(Nc2nc3ccccc3n2Cc2ccc(F)cc2)CC1)c1nccs1 |
